From US20120108557A1, “FLUOROQUINOLONE DERIVATIVES FOR OPHTHALMIC APPLICATIONS” (ALCON RESEARCH, LTD., priority 2008, published 2012)

Key:
Type in all cases: cell-based
[1] = tested on: microorganisms; assay: In vitro antimicrobial activity test, whole panel of test organisms; settings: across the test organisms of TABLE 3
Procedure: (§1) The activity of the compounds of the present invention was evaluated using an in vitro assay. Microorganisms were prepared from growth on agar media, in broth culture, or from thawed cryopreserved cultures. Fungal cultures were filtered to remove mycelial elements.
(§2) Using Mueller Hinton II Broth, 0.9% saline or other appropriate media, a suspension of each culture was prepared and adjusted to a turbidity equivalent to that of a 0.5 McFarland Standard. (Cultures adjusted to the 0.5 McFarland Standard generally contain approximately 1.0×10^8 CFU/mL). The adjusted suspension for each culture was diluted 1:10 in the appropriate media so that the inoculum concentration approximates 1.0×10^7 CFU/mL.
(§3) The antimicrobial agent to be tested was weighed and diluted with a volume of sterile distilled water calculated to yield the necessary starting concentration. Serial 1:2 dilutions of the antimicrobial agent in sterile distilled water were prepared (approximately 10-12 test concentrations comprise a reasonable experimental range). A known amount of each antimicrobial dilution was combined with an aliquot of agar medium calculated to yield the desired final antimicrobial test concentration and dispensed onto plates.
(§4) The amount of antimicrobial agent to be weighed was determined using the following equation: […]
(§5) Antimicrobial stock solutions were prepared at concentrations 5-10 times the highest concentration to be tested (routinely 1024 μg/mL). […] The stock solution was diluted to appropriate concentration using sterile water to form a working solution. The working solution was diluted two-fold, in sterile water, until the desired concentration is obtained.
Mueller Hinton II agar was prepared as described by the manufacturer. Mueller Hinton II agar may be supplemented with 5% defibrinated sheep blood for testing streptococci. Agar was added to the serially diluted antimicrobial solution in each container. The solutions were mixed thoroughly and poured into petri dishes (about 25 mL/plate). The pH of the agar at 25° C. should be between 7.2 and 7.4. […]

[2] = tested on: Acinetobacter junii; assay: In vitro antimicrobial activity, agar dilution MIC
Procedure: as §1, §2, §3, §4, §5
(§6) Mueller Hinton II agar was prepared as described by the manufacturer. Mueller Hinton II agar may be supplemented with 5% defibrinated sheep blood for testing streptococci. Agar was added to the serially diluted antimicrobial solution in each container. The solutions were mixed thoroughly and poured into petri dishes (about 25 mL/plate). The pH of the agar at 25° C. should be between 7.2 and 7.4.
(§7) At least one inocula control plate was inoculated (agar medium without antimicrobial agent) from each seed plate before inoculating test plates. Test plates were inoculated starting at the lowest concentration and proceeding to the highest concentration. After all test plates were inoculated, an additional control plate (agar medium without antimicrobial agent) was inoculated. The plates were incubated in a non-CO2 incubator (or CO2 incubator depending on growth requirements); 18-24 hours at 32-35° C. was sufficient for most organisms.
(§8) All inoculation points on the agar surface were examined for the presence of growth as compared to the inoculum control plates. The results were summarized and use to determine Minimal Inhibitory Concentrations (MICs): The MIC is the lowest concentration of the antimicrobial agent which prevents visible growth of the organism (negative score).

[3] = tested on: Enterobacter hormaechei; assay: In vitro antimicrobial activity, agar dilution MIC; settings: test organism 31, Enterobacter hormaechei
Procedure: as §1, §2, §3, §4, §5, §6, §7, §8

[4] = tested on: Streptococcus pneumoniae; assay: In vitro antimicrobial activity, agar dilution MIC
Procedure: as §1, §2, §3, §4, §5, §6, §7, §8

[5] = tested on: Corynebacterium amycolatum; assay: In vitro antimicrobial activity, agar dilution MIC
Procedure: as §1, §2, §3, §4, §5, §6, §7, §8

[6] = tested on: Staphylococcus aureus; assay: In vitro antimicrobial activity, agar dilution MIC
Procedure: as §1, §2, §3, §4, §5, §6, §7, §8

[7] = tested on: Escherichia coli; assay: In vitro antimicrobial activity, agar dilution MIC
Procedure: as §1, §2, §3, §4, §5, §6, §7, §8

[8] = tested on: MSSA; assay: In vitro antimicrobial activity, agar dilution MIC; settings: test organism 6, MSSA
Procedure: as §1, §2, §3, §4, §5, §6, §7, §8

[9] = tested on: Acinetobacter baumannii; assay: In vitro antimicrobial activity, agar dilution MIC; settings: test organism 26, Acinetobacter baumannii
Procedure: as §1, §2, §3, §4, §5, §6, §7, §8

[10] = tested on: Pseudomonas aeruginosa; assay: In vitro antimicrobial activity, agar dilution MIC
Procedure: as §1, §2, §3, §4, §5, §6, §7, §8

[11] = tested on: Streptococcus mitis; assay: In vitro antimicrobial activity, agar dilution MIC
Procedure: as §1, §2, §3, §4, §5, §6, §7, §8

[12] = tested on: Staphylococcus epidermidis; assay: In vitro antimicrobial activity, agar dilution MIC
Procedure: as §1, §2, §3, §4, §5, §6, §7, §8

[13] = tested on: Staphylococcus haemolyticus; assay: In vitro antimicrobial activity, agar dilution MIC
Procedure: as §1, §2, §3, §4, §5, §6, §7, §8

[14] = tested on: Stenotrophomonas maltophilia; assay: In vitro antimicrobial activity, agar dilution MIC
Procedure: as §1, §2, §3, §4, §5, §6, §7, §8

[15] = tested on: MRSA; assay: In vitro antimicrobial activity, agar dilution MIC
Procedure: as §1, §2, §3, §4, §5, §6, §7, §8

[16] = tested on: Morganella morganii; assay: In vitro antimicrobial activity, agar dilution MIC
Procedure: as §1, §2, §3, §4, §5, §6, §7, §8

[17] = tested on: Enterococcus faecalis; assay: In vitro antimicrobial activity, agar dilution MIC
Procedure: as §1, §2, §3, §4, §5, §6, §7, §8

[18] = tested on: Serratia marcescens; assay: In vitro antimicrobial activity, agar dilution MIC
Procedure: as §1, §2, §3, §4, §5, §6, §7, §8

[19] = tested on: MRSE; assay: In vitro antimicrobial activity, agar dilution MIC
Procedure: as §1, §2, §3, §4, §5, §6, §7, §8

Molecule: Nc1c(F)c(N2CC3CCCNC3C2)c(F)c2c1c(=O)c(C(=O)O)cn2C1CC1 (stereo not drawn) [Compound 3]
- antimicrobial activity compared to moxifloxacin (in words) [1]: showed increased antimicrobial activity against most microorganisms

Molecule: moxifloxacin [reference compound]
- Minimal Inhibitory Concentration (MIC) ([2]; test organism 27, Acinetobacter junii): ≦0.25
- Minimal Inhibitory Concentration (MIC) ([2]; test organism 28, Acinetobacter junii): 0.25
- Minimal Inhibitory Concentration (MIC) ([2]; test organism 29, Acinetobacter junii): >4
- Minimal Inhibitory Concentration (MIC) [3]: >4
- Minimal Inhibitory Concentration (MIC) ([4]; test organism 19, Streptococcus pneumoniae): 0.25
- Minimal Inhibitory Concentration (MIC) ([4]; test organism 20, Streptococcus pneumoniae): ≦0.25
- Minimal Inhibitory Concentration (MIC) ([5]; test organism 24, Corynebacterium amycolatum): 0.03
- Minimal Inhibitory Concentration (MIC) ([5]; test organism 25, Corynebacterium amycolatum): >4
- Minimal Inhibitory Concentration (MIC) ([6]; test organism 1, Staphylococcus aureus): 0.06
- Minimal Inhibitory Concentration (MIC) ([6]; test organism 2, Staphylococcus aureus): ≦0.25
- Minimal Inhibitory Concentration (MIC) ([7]; test organism 32, Escherichia coli): 0.125
- Minimal Inhibitory Concentration (MIC) ([7]; test organism 33, Escherichia coli): ≦0.25
- Minimal Inhibitory Concentration (MIC) ([7]; test organism 34, Escherichia coli): >4
- Minimal Inhibitory Concentration (MIC) [8]: >4
- Minimal Inhibitory Concentration (MIC) [9]: ≦0.25
- Minimal Inhibitory Concentration (MIC) ([10]; test organism 37, Pseudomonas aeruginosa): >4
- Minimal Inhibitory Concentration (MIC) ([10]; test organism 38, Pseudomonas aeruginosa): 4
- Minimal Inhibitory Concentration (MIC) ([11]; test organism 21, Streptococcus mitis): ≦0.25
- Minimal Inhibitory Concentration (MIC) ([11]; test organism 22, Streptococcus mitis): 0.125
- Minimal Inhibitory Concentration (MIC) ([11]; test organism 23, Streptococcus mitis): 4
- Minimal Inhibitory Concentration (MIC) ([12]; test organism 7, Staphylococcus epidermidis): 0.06
- Minimal Inhibitory Concentration (MIC) ([12]; test organism 8, Staphylococcus epidermidis): 1
- Minimal Inhibitory Concentration (MIC) ([13]; test organism 12, Staphylococcus haemolyticus): 0.5
- Minimal Inhibitory Concentration (MIC) ([13]; test organism 13, Staphylococcus haemolyticus): 2
- Minimal Inhibitory Concentration (MIC) ([13]; test organism 14, Staphylococcus haemolyticus): >4
- Minimal Inhibitory Concentration (MIC) ([14]; test organism 41, Stenotrophomonas maltophilia): >4
- Minimal Inhibitory Concentration (MIC) ([14]; test organism 42, Stenotrophomonas maltophilia): 0.125
- Minimal Inhibitory Concentration (MIC) ([15]; test organism 3, MRSA): 2
- Minimal Inhibitory Concentration (MIC) ([15]; test organism 4, MRSA): 4
- Minimal Inhibitory Concentration (MIC) ([15]; test organism 5, MRSA): >2
- Minimal Inhibitory Concentration (MIC) ([16]; test organism 35, Morganella morganii): 0.5
- Minimal Inhibitory Concentration (MIC) ([16]; test organism 36, Morganella morganii): 4
- Minimal Inhibitory Concentration (MIC) ([17]; test organism 15, Enterococcus faecalis): 0.5
- Minimal Inhibitory Concentration (MIC) ([17]; test organism 16, Enterococcus faecalis): ≦0.25
- Minimal Inhibitory Concentration (MIC) ([17]; test organism 17, Enterococcus faecalis): >4
- Minimal Inhibitory Concentration (MIC) ([17]; test organism 18, Enterococcus faecalis): >2
- Minimal Inhibitory Concentration (MIC) ([18]; test organism 39, Serratia marcescens): 2
- Minimal Inhibitory Concentration (MIC) ([18]; test organism 40, Serratia marcescens): 2
- Minimal Inhibitory Concentration (MIC) ([19]; test organism 9, MRSE): >2
- Minimal Inhibitory Concentration (MIC) ([19]; test organism 10, MRSE): >2
- Minimal Inhibitory Concentration (MIC) ([19]; test organism 11, MRSE): >4
